Read-outs that look alike come from different tables or passages of the source.

For one data set, the system named is F0 C57BL/6J mice. The experiment in a line: Perinatal dietary exposure: general toxicity and reproduction parameters (litter size, sex ratio, survival). The data set is classed as in vivo. How it is done: PFOA was obtained as sodium perfluoro-n-octanoate (PFOA-Na; CAS No. 335-95-5, purity >99 %) and kindly provided by Wellington Laboratories Inc., Ontario, Canada. PFOA-Na was dissolved in acetone and mixed with the diet (NIH-07, Research Diet Services, Wijk bij Duurstede, The Netherlands). Thereafter, acetone was allowed to evaporate, and this master mixture was serially diluted with a factor 3–3.3 by adding NIH-07, and afterward, the diet was pelleted. In this way, seven diet groups and a control NIH-07 (blank acetone was added) were obtained, aiming at concentrations of 0, 0.017, 0.056, 0.17, 0.56, 1.7, 5.6 and 17 mg/kg PFOA in feed, which corresponded to 0, 3, 10, 30, 100, 300, 1000 and 3000 µg/kg bw based on an average food consumption of 4.5 g per mouse (average body weight of 25 g) per day. PFOA concentrations in test diets were confirmed by isotope dilution liquid chromatography mass spectrometry after extraction with methanol (8402, JT Baker, Deventer the Netherlands) and a cleanup with carbon solid phase extraction (ENVI Carb, 57210-U, Supelco, Zwijndrecht, the Netherlands). Actual PFOA concentrations in the food were 15–30 % lower than the nominal values. The non-purified soy-based NIH-07 was chosen because it was originally designed to optimize gestation, lactation and growth of rodents, and avoiding natural phytoestrogens in the diet may have confounding effects (Ruhlen et al. [2008]). Estrogenic and anti-estrogenic activity for this diet was previously analyzed to be low and absent, respectively (van Esterik et al. [2014]).
Nulliparous female C57BL/6J mice (Charles River, Sulzfeld, Germany) were mated with male FVB mice (GPL, Bilthoven, The Netherlands) to produce hybrid offspring, for which comprehensive background information of phenotype and development is available (Dollé et al. [2011]). Mice were maintained under specific pathogen-free conditions with a target ambient temperature of 21 °C, humidity of 60 % and with a 12/12 h light/dark cycle. F0 males were single-housed in standard Macrolon type II cages and were fed standard laboratory chow (CRM, Tecnilab-BMI, Someren, The Netherlands). To avoid interference from environmental bisphenol A (van Esterik et al. [2014]), F0 females and their pups during lactation were housed in polysulfone cages (Tecnilab-BMI, Someren, The Netherlands), and drinking water was supplied in glass bottles with rubber stoppers. Cages had spruce/fir wood bedding (Lignocel S 8-15; Tecnilab-BMI, Someren, The Netherlands) and aspen wood shavings (Lignocel 9 S) for cage enrichment. Both feed and water were supplied ad libitum.
After an acclimatization period of 1 week, female F0 mice were fed experimental diets explained above starting 2 weeks before mating and continued during mating (1 week), gestation (3 weeks) and lactation (3 weeks). Each dose group had six F0 females, which were mated three by three with two F0 males for each dose group. […] For every dose group, on average 9 mice per sex (range 6–10) were included for follow-up through juvenile and adult stages, selecting pups proportionally from available litters. F1 males were single-housed, and F1 females were housed in pairs from the same litter in standard Macrolon type I cages. Body weight was measured at postnatal day (PND) 4, 7, 14 and 21 and weekly from 5 weeks of age continuing until the end of the study. Food consumption could not be recorded reliably due to high spillage.

In another data set the test system is rodents. Set-up: method as in EFSA [2008]. The following applies: basis of the TDI; ref EFSA [2008]; cited from earlier work.
Data set [1] concerns C57BL/6JxFVB hybrid mice. Kind of data set: Insulin tolerance test. In kind it is in vivo. The following applies: males and females; 300 µg/kg vs control; 20 weeks; data not shown. As for the experimental part:
(§1) One week later, at 20 weeks of age, an insulin tolerance test (ITT) was performed in the same animals as used for the GTT. Mice were not fasted to avoid low glucose baseline levels which, after an insulin injection, could lead to hypoglycemia. At the start of the experiment, a baseline blood sample was taken (0 min). […] The experiment was performed over two morning sessions, with 1.75 h between the first and last tested animal in each session, and animals were treated in a random order. At the age of 22–25 weeks, control and 300 µg/kg bw/d animals were used for a spontaneous locomotor activity test. After an acclimatization period of minimal 6 h, activity of the mice was continuously registered on four parallel platforms for 36 h (males) or 60 h (females), starting at the beginning of the dark phase (6.30 PM) of the first day.

Data set [2] has as its system C57BL/6JxFVB hybrid mice. Kind of data set: Tibia composition/function by pQCT. The data set is classed as in vivo. The settings on record: for Emax: Mus musculus.
Data set [3] deals with C57BL/6JxFVB hybrid mice. The experiment in a line: Spontaneous locomotor activity test. In kind it is in vivo. The following applies: males and females; 300 µg/kg vs control; data not shown. As for the experimental part:
as §1
Some measurements included only control and one or two dose groups and could therefore not be analyzed as dose–responses. GTT was therefore evaluated by repeated-measures or nested (to account for litter covariance) two-way ANOVAs (Graphpad Prism 5.0, R) to detect differences at the different time points and between the areas under the curve (AUC). Activity measurement, ucp1 expression, WAT adipocyte size and the proxy for cell number were also tested with a nested ANOVA (R). […]

With `O=C(O)C(F)(F)C(F)(F)C(F)(F)C(F)(F)C(F)(F)C(F)(F)C(F)(F)F` [PFOA, Perfluorooctanoic acid], the “Sex ratio or survival of the F1 generation” value in the data set on F0 C57BL/6J mice (3–3000 µg/kg bw/day) was “No effects”. Further, the “Litter size: BMD (CED)” value in the data set with F0 C57BL/6J mice (F0 dams exposed via diet 2 weeks before mating until PND21) stood at 445 µg/kg bw/d. In addition, in the data set on F0 C57BL/6J mice (Fig. 1, unit from legend), the “Litter size: CEDL” value was determined as 299.1 µg/kg body weight/day and the “Litter size: CEDU” value amounted to 873 µg/kg body weight/day. For the same compound, the “General toxicity in dams (survival, body weight, weight gain during gestation)” value in the data set with F0 C57BL/6J mice (dietary exposure 3–3000 µg/kg bw/day) is “no effect”. In the data set with rodents, the “BMDL10 for liver effects in rodents” value was 300 µg/kg bw/d. Besides, the “Glucose homeostasis: ITT” value in the data set with C57BL/6JxFVB hybrid mice [1] is “did not show an effect”. Besides, in the data set with C57BL/6JxFVB hybrid mice [2] (F1 females, CES 5 %), the “Tibia ability to resist torsion: BMDL” value came to 917 µg/kg bw/d, the “Tibia ability to resist torsion: BMDU” value is 10,316 µg/kg bw/d, the “Tibia bending strength: BMDL” value worked out at 888 µg/kg bw/d and the “Tibia bending strength: BMDU” value was found to be 3371 µg/kg bw/d. In addition, in the data set with C57BL/6JxFVB hybrid mice [2] (F1 females, CES 5 %), the “Tibia cortical density: BMDL” value is 2866 µg/kg bw/d, the “Tibia cortical density: BMDU” value amounted to 6949 µg/kg bw/d, the “Tibia trabecular area: BMDL” value is reported as 914 µg/kg bw/d and the “Tibia trabecular area: BMDU” value is 3037 µg/kg bw/d. For the same compound, in the data set on C57BL/6JxFVB hybrid mice [2] (F1 males, CES 5 %), the “Tibia cortical density: BMDL” value came out at 2635 µg/kg bw/d and the “Tibia cortical density: BMDU” value is on record as 27,520 µg/kg bw/d. In addition, the Emax with C57BL/6JxFVB hybrid mice [2] (F1 females, read-out: Tibia ability to resist torsion: max effect size) was -8.3%. In addition, in the data set with C57BL/6JxFVB hybrid mice [2] (F1 females, read-out: Tibia bending strength: max effect size), the Emax is -9.9%. Besides, the Emax with C57BL/6JxFVB hybrid mice [2] (F1 females, read-out: Tibia cortical density: max effect size) is -3.7%. Further, in the data set on C57BL/6JxFVB hybrid mice [2] (F1 females, read-out: Tibia trabecular area: max effect size), the Emax is -10%. The Emax in the data set on C57BL/6JxFVB hybrid mice [2] (F1 males, read-out: Tibia cortical density: max effect size) is -3.4%. For the same compound, the “Energy expenditure: physical activity” value with C57BL/6JxFVB hybrid mice [3] was “did not show an effect”.

Values taken from publication PMC4754331, “Programming of metabolic effects in C57BL/6JxFVB mice by in utero and lactational exposure to perfluorooctanoic acid” (Archives of Toxicology, 2015).
